Read-outs that look alike come from different tables or passages of the source.
Key:
[1] = molecular target: T1, pregnane X receptor (PXR) (Homo sapiens, UniProt O75469); assay type: cell-based; conditions: for Fold induction in PXR activity: HepG2, 24 h, mean ± SD, NA = No activation
T1 sequence (O75469 1-434): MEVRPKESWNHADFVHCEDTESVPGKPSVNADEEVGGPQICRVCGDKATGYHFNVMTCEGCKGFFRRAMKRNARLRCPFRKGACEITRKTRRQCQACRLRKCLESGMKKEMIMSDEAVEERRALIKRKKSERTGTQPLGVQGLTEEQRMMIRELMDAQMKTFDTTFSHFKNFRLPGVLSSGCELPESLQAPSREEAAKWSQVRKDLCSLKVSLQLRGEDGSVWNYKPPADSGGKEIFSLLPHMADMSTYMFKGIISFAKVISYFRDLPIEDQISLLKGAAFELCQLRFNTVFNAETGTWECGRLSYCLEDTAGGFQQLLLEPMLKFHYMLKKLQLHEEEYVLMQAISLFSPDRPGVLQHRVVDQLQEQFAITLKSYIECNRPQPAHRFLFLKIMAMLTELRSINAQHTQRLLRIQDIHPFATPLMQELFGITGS

[2] = molecular target: CYP3A4 (Homo sapiens, UniProt P08684); assay: Cytochrome P450; conditions: for CYP 3A4 Inhibition - IC50: 15 min incubation, 37 °C, mean ± SD of three experiments
Sequence of CYP3A4 (P08684 whole entry): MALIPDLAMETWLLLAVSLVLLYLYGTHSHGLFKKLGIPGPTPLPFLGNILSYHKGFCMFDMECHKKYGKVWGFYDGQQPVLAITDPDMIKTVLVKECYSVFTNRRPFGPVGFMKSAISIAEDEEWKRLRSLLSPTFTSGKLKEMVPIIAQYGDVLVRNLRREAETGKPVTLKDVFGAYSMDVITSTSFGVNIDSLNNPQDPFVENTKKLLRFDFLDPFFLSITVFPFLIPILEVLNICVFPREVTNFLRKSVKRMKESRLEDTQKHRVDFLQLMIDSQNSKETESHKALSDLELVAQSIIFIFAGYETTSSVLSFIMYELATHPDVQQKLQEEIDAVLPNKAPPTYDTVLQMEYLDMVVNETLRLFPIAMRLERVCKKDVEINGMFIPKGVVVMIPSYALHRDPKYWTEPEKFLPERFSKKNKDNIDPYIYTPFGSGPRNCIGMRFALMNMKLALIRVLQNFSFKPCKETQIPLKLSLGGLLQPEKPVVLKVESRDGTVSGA

Molecule | Fold induction in PXR activity ([1]; compounds at 12.5 μg/mL) | Fold induction in PXR activity ([1]; compounds at 25 μg/mL) | Fold induction in PXR activity ([1]; compounds at 50 μg/mL) | CYP 3A4 Inhibition - IC50 [2] | also measured
COC(=O)C1=C[C@H](O)C[C@H]2[C@]3(C)C[C@@H](c4ccoc4)OC(=O)[C@@H]3C[C@@H](O[C@@H]3O[C@H](CO)[C@@H](O)[C@H](O)[C@H]3O)[C@@]12C [(2R,5R,6R,8R,9S, 10S,12S)-15,16-epoxy-2-hydroxy-6-O-(β-D-glucopyranosyl)-cleroda-3, 13(16),14-trien-17,12-olid-18-oicacidmethyl ester] | 0.93 ± 0.04 fold | 1.01 ± 0.13 fold | 1.39 ± 0.11 fold | 29.00 ± 0.82 µg/mL | 
COC(=O)C1=C[C@H](O)C[C@H]2[C@]3(C)C[C@@H](c4ccoc4)OC(=O)[C@H]3C[C@H](O[C@@H]3O[C@H](CO)[C@@H](O)[C@H](O)[C@H]3O)[C@@]12C [Borapetoside B, borapetoside B] |  |  |  |  | IC50 [2]: 181 µM
COC(=O)C1=CCC[C@H]2[C@]3(C)C[C@@H](c4ccoc4)OC(=O)[C@@H]3C[C@@H](O[C@@H]3O[C@H](CO)[C@@H](O)[C@H](O)[C@H]3O)[C@@]12C [Borapetoside C, borapetoside C] |  |  |  |  | IC50 [2]: 69.9 µM
COC(=O)C1=CCCC2C3(C)CC(c4ccoc4)OC(=O)C3=CC(OC3OC(CO)C(O)C(O)C3O)C12C (stereo not shown) [Borapetoside F, borapetoside F] |  |  |  | 13.00 ± 0.82 µg/mL | 
C[C@@]12C[C@@H](c3ccoc3)OC(=O)[C@@H]1CC[C@]1(C)[C@H]2[C@@H]2C=C[C@@]1(O)C(=O)O2 [Columbin, columbin] |  | 2.89 ± 0.62 fold | 3.58 ± 0.61 fold |  | PXR activation (fold) ([1]; concentration not given): 3 fold
C=C(CC[C@@H](C)[C@H]1CC[C@@]2(C)[C@@H]3CC[C@H]4[C@H](C)[C@@H](O)CC[C@@]45C[C@@]35CC[C@]12C)C(C)C [Cycloeucalenol, cycloeucalenol] |  |  |  |  | fold induction at 24 h, 12.5 μg/mL ([1]; human): 1.42 ± 0.06; fold induction at 24 h, 25 μg/mL ([1]; human): 1.91 ± 0.23; fold induction at 24 h, 50 μg/mL ([1]; human): 2.42 ± 0.3
COc1cc(/C=C/C(=O)NCCc2ccc(O)cc2)ccc1O [N-trans-feruloyl tyramine] |  |  |  |  | fold induction at 24 h, 12.5 μg/mL ([1]; human): 1.59 ± 0.07; fold induction at 24 h, 25 μg/mL ([1]; human): 2.16 ± 0.27; fold induction at 24 h, 50 μg/mL ([1]; human): 2.29 ± 0.41; IC50 [2]: 8.62 µM
COc1cc2c(cc1OC)-c1cc3ccc(OC)c(OC)c3c[n+]1CC2 [Palmatine, palmatine] | 1.08 ± 0.00 fold | 1.30 ± 0.00 fold | 1.43 ± 0.00 fold | 34.00 ± 0.00 µg/mL | 
CO[C@H]1/C=C/O[C@@]2(C)Oc3c(C)c(O)c4c(O)c(c(/C=N/N5CCN(C)CC5)c(O)c4c3C2=O)NC(=O)/C(C)=C\C=C\[C@H](C)[C@H](O)[C@@H](C)[C@@H](O)[C@@H](C)[C@H](OC(C)=O)[C@@H]1C [Rifampicin, reference compound] |  |  |  |  | fold induction at 24 h, 5 µM ([1]; human): 3.24 ± 0.15; fold induction at 24 h, 10 µM ([1]; human): 3.25 ± 0.08

Now from value to molecule, other results behind:

Fold induction in PXR activity ([1]; compounds at 12.5 μg/mL) | Fold induction in PXR activity ([1]; compounds at 25 μg/mL) | Fold induction in PXR activity ([1]; compounds at 50 μg/mL) | CYP 3A4 Inhibition - IC50 [2] | Molecule | also measured
1.48 ± 0.06 fold | 1.67 ± 0.02 fold | 1.42 ± 0.06 fold | >100 µg/mL | COc1cc(/C=C/CO)cc(OC)c1O[C@@H]1O[C@H](CO)[C@@H](O)[C@H](O[C@@H]2OC[C@](O)(CO)[C@H]2O)[C@H]1O [Tinosinen, tinosinen] | 
1.42 ± 0.06 fold | 1.50 ± 0.00 fold | 1.53 ± 0.11 fold | 45.00 ± 5.72 µg/mL | CC(=O)O[C@@H]1[C@@H]2[C@H](CC[C@@]3(O)C(=O)O[C@H](c4ccoc4)C[C@@]23C)[C@H](O[C@@H]2O[C@H](CO)[C@@H](O)[C@H](O)[C@H]2O)C[C@@H]1O [Tinosineside A, tinosineside A] | 
1.18 ± 0.09 fold | 1.54 ± 0.16 fold | 1.96 ± 0.16 fold |  | baenzigeride A | 
1.22 ± 0.06 fold | 1.47 ± 0.03 fold | 1.95 ± 0.04 fold |  | cordifoliside C | 
1.30 ± 0.08 fold | 1.55 ± 0.08 fold | 1.52 ± 0.15 fold |  | tinosposinoside | 

Reference: article PMC11094663 (Journal of ethnopharmacology, 2022)
